Key:
[1] = system: L929 cells; assay: In vitro activity assay of mouse RIP1: L929 cell TNFα/QVD-OPh-induced necroptosis; type: cell-based; conditions: TNF-α 50 ng/mL + Q-VD 50 μM, 24 h, CellTiter Glo
Method: Assay Example 2: In Vitro Activity Assay of Mouse RIP1
L929 (purchased from ATCC, Item No.: CCL-1)
Instrument Microplate reader (Perkin Elmer, Envision) Formulation of Reagents L929 cell complete medium: EMEM+10% horse serum (volume ratio)+1% double antibiotics (volume ratio) Assay Step • 1. The cultured L929 cells were digested with trypsin, centrifuged, resuspended in complete culture medium, and then counted. The cell concentration was then diluted to 1×10^5/mL with complete culture medium. • 2. The cell suspension was added to a 96-well plate at 100 μL per well and incubated at 37° C. and 5% CO2 for 24 h. • 3. Different concentrations of assay compounds were added to each well, and dimethyl sulfoxide was added to the control group. The plate was incubated at 37° C. and 5% CO2 for 1 h. • 4. To each well were added TNF-α at a final concentration of 50 ng/mL and Q-VD at a final concentration of 50 μM, and the plate was incubated at 37° C. and 5% CO2 for 24 h. • 5. To each well was added 50 μL of CellTiter Glo […], and the plate was shaken in the dark for 10 min. • 6. The plate was read on the microplate reader.

[2] = system: U937 cells; assay: U937 cell activity assay: TNFα/QVD-OPh-induced programmed cell necrosis (necroptosis); type: cell-based, human; conditions: QVD-OPh 25 μM + TNF-α 100 ng/mL, CellTiter Glo
Method: 1.2 Instrument and Materials
Envision plate reader (Perkin Elmer, Cat #2104-0010)
1.3 Formulation of Reagents • (1) 1×DPSB: To 100 mL of 10×DPBS was added 900 mL of deionized water. • (2) 1640 complete medium: To 89 mL of RPMI-1640 medium were added 10 mL of FBS and 1 mL of penicillin/streptomycin 2. Assay Steps • 1. U937 cells were centrifuged, and then the medium was discarded. The cells were resuspended in 1640 complete medium and counted. The cell concentration was adjusted to 5×10^5 cells/mL for use, and the cells were arranged according to compounds to be assayed. • 2. To the prepared resuspension of U937 cells were added QVD-OPh at a final concentration of 25 μM and TNF-α at a final concentration of 100 ng/mL, and then the mixture was mixed gently. • 3. To a 384-well plate was added 30 μL/well of U937 cells containing 25 μM of QVD-OPh and TNF-α at a final concentration of 100 ng/mL, and blank control wells without QVD-OPh and TNF-α were set up. • 4. To the dosing group […] added 10 μL of the assay compound at 4 times the preset concentration, and to the blank control well was added DMSO at the corresponding concentration. • 5. The 384-well plate was placed in a 37° C. and 5% CO2 cell incubator for 24 hours. • 6. After 24 hours, the 384-well plate was taken out and equilibrated at room temperature for 20 minutes. • 7. 40 μL of CTG was added to each well, and then the plate was shaken on a shaker in the dark for 2 minutes. • 8. The plate was incubated at room temperature in the dark for 10 minutes, and then read using an Envision plate reader.

[3] = Pharmacokinetic parameters in dogs; type: in vivo; conditions: beagle, plasma, dog
Method: Four healthy adult beagle dogs were selected and randomly divided into two groups. One group was given the assay compound by intravenous injection, and the other group was given the assay compound by gavage. Plasma samples were collected respectively from animals in the intravenous group and gavage group at 0.083, 0.25, 0.5, 1.0, 2.0, 4.0, 6.0, 8.0, 24 hours after administration. The blood concentration was determined by LC-MS/MS method. Relevant pharmacokinetic parameters were calculated by WinNonlin™ Version 6.3 (Pharsight. Mountain View, CA) pharmacokinetic software using non-compartmental model and linear logarithmic trapezoidal method. AUC0-last represents the area under the plasma concentration-time curve from zero time point to the last detectable concentration time point; Cmax represents the peak concentration; Tmax represents the time to reach the peak; T1/2 represents the half-life; CL represents the clearance rate; Vdss represents apparent volume of distribution; p.o. represents per os; i.v. represents intravenous injection; and F % represents oral bioavailability.

Row | Structure (SMILES) | IC50 [1] [µM] | IC50 ([2]; Homo sapiens, U-937, 24 h) [µM] | also measured
1 | CN1C(=S)[C@@H](NC(=O)c2nc3n(n2)CCO[C@H]3c2ccccc2)COc2cccnc21 (single isomer, unassigned) [WX028] | 0.065 | 0.0047 | –
2 | CN1C(=S)[C@@H](NC(=O)c2nc(Cc3ccccc3)n[nH]2)COc2ccccc21 [WX001] | 1.16 | 0.0005 | –
3 | CN1C(=S)[C@@H](NC(=O)c2nc(Cc3cccc(C#N)c3)n[nH]2)COc2ccccc21 [WX002] | – | 0.0018 | –
4 | CN1C(=S)[C@@H](NC(=O)c2nc(Cc3ccccc3)n[nH]2)COc2cccnc21 [WX003] | 1.21 | 0.0005 | –
5 | CN1C(=S)[C@@H](NC(=O)c2nc(Cc3cccc(C#N)c3)n[nH]2)COc2cccnc21 [WX004] | – | 0.0003 | –
6 | [2H]C([2H])([2H])N1C(=S)[C@@H](NC(=O)c2n[nH]c(Cc3ccccc3)n2)COc2cccnc21 [WX005] | 1.31 | 0.002 | –
7 | CN1C(=S)[C@@H](NC(=O)c2cn(Cc3ccccc3)cn2)COc2cccnc21 [WX006] | – | 0.009 | –
8 | CN1C(=S)[C@@H](NC(=O)c2cc(Cc3ccccc3)on2)COc2cccnc21 [WX007] | – | 0.07 | –
9 | CN1C(=S)[C@@H](NC(=O)c2nc(Cl)n(Cc3cccc(C#N)c3)n2)COc2cccnc21 [WX008] | 0.047 | 0.0081 | –
10 | CN1C(=S)[C@@H](NC(=O)c2cn(Cc3ccccc3)nn2)COc2cccnc21 [WX010] | – | 0.047 | –
11 | CN1C(=S)[C@@H](NC(=O)c2nc(Cl)n(Cc3ccccc3)n2)COc2cccnc21 [WX011] | 0.011 | 0.0017 | –
12 | CN1C(=S)[C@@H](NC(=O)c2nnc(Cc3ccccc3)o2)COc2cccnc21 [WX012] | – | 0.0121 | –
13 | CN1C(=S)[C@@H](NC(=O)c2nc3n(n2)[C@H](c2ccccc2)CC3)COc2cccnc21 [WX013] | 0.014 | 0.0018 | AUC(0-t) ([3]; 1 mg/kg, iv = 1 mpk): 7.42 µM·h; clearance ([3]; 1 mg/kg, iv = 1 mpk): 0.311 L/h/kg; half-life ([3]; 1 mg/kg, iv = 1 mpk): 4.89 h; Vd ([3]; 1 mg/kg, iv = 1 mpk, read-out: Vdss): 2.02 L/kg; AUC(0-t) ([3]; 5 mg/kg, po = 5 mpk): 27.7 µM·h; bioavailability ([3]; po = 5 mpk vs iv = 1 mpk): 80.1%
14 | O=C(N[C@H]1CCc2cc(F)cc(F)c2NC1=S)c1nc(Cc2ccccc2)n[nH]1 [WX014] | – | 0.0037 | –
15 | CN1C(=S)[C@@H](NC(=O)c2nnn(Cc3ccccc3)n2)COc2cccnc21 [WX015] | – | – | IC50 ([2]; 24 hours): 0.0051 µM
16 | Cc1nc(C(=O)N[C@H]2COc3cccnc3N(C)C2=S)nn1Cc1ccccc1 [WX016] | – | 0.0098 | –
17 | CN1C(=S)[C@@H](NC(=O)c2ncn(CC34CC(F)(C3)C4)n2)COc2cccnc21 [WX017] | – | 0.059 | –
18 | CN1C(=S)[C@@H](NC(=O)c2nnn(Cc3ccccc3)n2)COc2cccnc21 [WX018] | – | – | IC50 ([2]; 24 hours): 0.0013 µM
19 | CN1C(=S)[C@@H](NC(=O)c2ncn(Cc3ccccc3F)n2)COc2cccnc21 [WX019] | 0.051 | 0.0006 | –
20 | CN1C(=S)[C@@H](NC(=O)c2ncn(Cc3c(F)cccc3F)n2)COc2cccnc21 [WX020] | 0.029 | 0.0006 | –
21 | CN1C(=S)[C@@H](NC(=O)c2ncn(Cc3ccccc3)n2)COc2cc(Cl)cnc21 [WX021] | 0.445 | 0.013 | –

Row | Structure (SMILES) | IC50 [1] [µM] | IC50 ([2]; Homo sapiens, U-937, 24 h) [µM] | also measured
22 | CN1C(=S)[C@@H](NC(=O)c2ncn(Cc3ccccc3F)n2)COc2cc(Cl)cnc21 [WX022] | – | 0.02 | –
23 | CN1C(=S)[C@@H](NC(=O)c2ncn(Cc3ccccc3)n2)COc2cc(Br)cnc21 [WX023] | – | 0.029 | –
24 | CN1C(=S)[C@@H](NC(=O)c2ncn(Cc3ccccc3)n2)COc2ccc(C(=O)O)cc21 [WX024] | – | 0.043 | –
25 | CN1C(=S)[C@@H](NC(=O)c2ncn(Cc3ccccc3)n2)COc2ccncc21 [WX025] | – | 0.012 | –
26 | CN1C(=S)[C@@H](NC(=O)c2cc(Oc3ccccc3)ccn2)COc2cccnc21 [WX026] | – | 0.005 | –
27 | COc1ccccc1Cn1cnc(C(=O)N[C@H]2COc3cccnc3N(C)C2=S)n1 [WX027] | – | 0.02 | –
28 | CN1C(=S)[C@@H](NC(=O)c2ncn(Cc3cccc(F)c3)n2)COc2cccnc21 [WX029] | 0.184 | 0.0022 | –
29 | COc1ccc(Cn2cnc(C(=O)N[C@H]3COc4cccnc4N(C)C3=S)n2)cc1 [WX030] | – | 0.0156 | –
30 | CN1C(=S)[C@@H](NC(=O)c2ncn(Cc3ccc(F)cc3)n2)COc2cccnc21 [WX031] | 0.174 | 0.0024 | –
31 | CN1C(=S)[C@@H](NC(=O)c2ncn(Cc3cccc(C#N)c3)n2)COc2cccnc21 [WX032] | 0.255 | 0.0057 | –
32 | Cc1cccc(Cn2cnc(C(=O)N[C@H]3COc4cccnc4N(C)C3=S)n2)c1 [WX033] | – | 0.0076 | –
33 | CN1C(=S)[C@@H](NC(=O)c2ncn(Cc3cc(F)cc(F)c3)n2)COc2cccnc21 [WX034] | – | 0.0037 | –
34 | Cc1ccccc1Cn1cnc(C(=O)N[C@H]2COc3cccnc3N(C)C2=S)n1 [WX035] | – | 0.0049 | –
35 | CN1C(=S)[C@@H](NC(=O)c2ncn(Cc3cccc(Cl)c3)n2)COc2cccnc21 [WX036] | – | 0.0064 | –
36 | CN1C(=S)[C@@H](NC(=O)c2ncn(Cc3cccc(Br)c3)n2)COc2cccnc21 [WX037] | – | 0.024 | –
37 | CN1C(=S)[C@@H](NC(=O)c2ncn(Cc3ccc(OC(F)(F)F)cc3)n2)COc2cccnc21 [WX038] | – | 0.238 | –
38 | Cc1ccc(Cn2cnc(C(=O)N[C@H]3COc4cccnc4N(C)C3=S)n2)cc1 [WX039] | 0.064 | 0.0034 | –
39 | CN1C(=S)[C@@H](NC(=O)c2ncn(Cc3ccccc3)n2)COc2ccc(C(N)=O)cc21 [WX040] | – | 0.0048 | –
40 | CN1C(=S)[C@@H](NC(=O)c2ncn(Cc3ccc(C(F)(F)F)cc3)n2)COc2cccnc21 [WX041] | – | 0.0865 | –
41 | COc1cccc(Cn2cnc(C(=O)N[C@H]3COc4cccnc4N(C)C3=S)n2)c1 [WX042] | – | 0.0248 | –
